The values below come from PubChem BioAssay (NCI).

Molecules are shown by their SMILES. “And” between values parts separate entries of the source, which are not always exact repeats. Equal entries are not always repeated.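 How tested: cells in 96-well plates exposed to compound for 48 hours at five concentrations. GI50 = concentration required for 50% inhibition of growth. Definition used: TGI = concentration required for complete inhibition of growth.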

The first test relates to U251 CNS. Briefly: NCI tumour cell line growth inhibition, 48 h.
The compound `CSc1nc2c(c(=O)[nH]1)N=C(c1ccc([N+](=O)[O-])cc1)CC(c1ccccc1)N2` (configuration not stated) yielded a TGI greater than 100 µM.
`COC1/C=C/C(C)C(C(C)C(OC)C(C)CCC(=O)C(C)C(C/C=C/N(C)C=O)OC)OC(=O)C=CC2OC2(C)CC(OC)C(OC)C2=CC(=O)O[C@@H](C(C)C(OC)CC(OC)/C=C/C(C)C(O)C1)[C@H]2O` (some centres not stated) came in with a TGI of 0.0416 µM.
Same read-out and setting: in the case of `CC(=O)Nc1ccc(C(O)/C(=N/N)c2nc3ccc(Cl)cc3[nH]c2=O)cc1` (configuration not stated) it was greater than 100 µM.
Same read-out and setting: in the case of `NC(N)=NCCCC(NC(=O)c1cccc2c(=O)c3ccccc3[nH]c12)C(=O)O` (configuration not stated) it was greater than 100 µM; in that of `O=C(NNCC(O)COc1ccccc1)c1ccccc1` (configuration not stated), greater than 100 µM; in that of `COC(=O)[C@@H]1CC(C(C[N+](=O)[O-])c2ccc(O[Si](C)(C)C(C)(C)C)cc2)C(=O)N1C(=O)OC(C)(C)C` (some centres not stated), greater than 100 µM.
Compound `CC(=O)C1C(=O)C(=O)N(c2cccc([N+](=O)[O-])c2)C1=O` (configuration not stated) registered a TGI greater than 100 µM.
In turn, `CCN(CC)CC1CCCCN1CC(=O)N1c2ccccc2C(=O)Nc2cccnc21` (configuration not stated) returned a TGI greater than 100 µM.
`O=C(NC1=C(Cl)C(=O)c2ccccc2C1=O)c1ccc(F)cc1` showed a TGI of 12.2 µM.

The subject of another test is NCI-H226 lung. Briefly: NCI tumour cell line growth inhibition, 48 h.
Turning to `NC(N)=NCC[C@H](NC(=O)OCCCCCn1ccc(=O)[nH]c1=O)C(=O)O`, the TGI was greater than 100 µM.
Still for that read-out and setting: in the case of `O=C(c1ccccc1)c1ccc2nc(-c3c(Cl)c(Cl)c(Cl)c(Cl)c3C(=O)N/N=C/c3ccc(Cl)cc3)[nH]c2c1` it was greater than 100 µM; in that of `CSc1nc2c(c(=O)[nH]1)N=C(c1ccc([N+](=O)[O-])cc1)CC(c1ccccc1)N2` (configuration not stated), greater than 100 µM; in that of `COC1/C=C/C(C)C(C(C)C(OC)C(C)CCC(=O)C(C)C(C/C=C/N(C)C=O)OC)OC(=O)C=CC2OC2(C)CC(OC)C(OC)C2=CC(=O)O[C@@H](C(C)C(OC)CC(OC)/C=C/C(C)C(O)C1)[C@H]2O` (some centres not stated), 0.0164 µM.
Same read-out and setting: in the case of `CC(=O)Nc1ccc(C(O)/C(=N/N)c2nc3ccc(Cl)cc3[nH]c2=O)cc1` (configuration not stated) it was greater than 100 µM.
The same measure, in the same setting: to `CC1CC(C)C(C#N)N(C)c2ccccc21` (configuration not stated) belongs greater than 100 µM; to `NC(N)=NCCCC(NC(=O)c1cccc2c(=O)c3ccccc3[nH]c12)C(=O)O` (configuration not stated), greater than 100 µM.
For `O=C(NNCC(O)COc1ccccc1)c1ccccc1` (configuration not stated), the TGI was greater than 100 µM.
As to `COC(=O)[C@@H]1CC(C(C[N+](=O)[O-])c2ccc(O[Si](C)(C)C(C)(C)C)cc2)C(=O)N1C(=O)OC(C)(C)C` (some centres not stated), the GI50 was 12.6 µM and 35 µM; the TGI was greater than 100 µM.
As to `CC(=O)C1C(=O)C(=O)N(c2cccc([N+](=O)[O-])c2)C1=O` (configuration not stated), the TGI is greater than 100 µM.
The same measure, in the same setting: in the case of `CCN(CC)CC1CCCCN1CC(=O)N1c2ccccc2C(=O)Nc2cccnc21` (configuration not stated) it was 98.8 µM; in that of `O=C(NC1=C(Cl)C(=O)c2ccccc2C1=O)c1ccc(F)cc1`, 8.37 µM.
`CCC(CCCN)Nc1cc(OC)cc2c(C)ccnc12` (configuration not stated) returned a TGI of 28.3 µM.

A further test relates to PC-3 prostate. Description: NCI tumour cell line growth inhibition, 48 h.
Compound `CCOC(=O)C1C(c2ccc3c(c2)OCO3)c2c([nH][nH]c2=O)CC1(C)O` (configuration not stated) yielded a TGI greater than 100 µM.
On the same count and under the same terms, in the case of `NC(N)=NCC[C@H](NC(=O)OCCCCCn1ccc(=O)[nH]c1=O)C(=O)O` it was greater than 100 µM; in that of `O=C(c1ccccc1)c1ccc2nc(-c3c(Cl)c(Cl)c(Cl)c(Cl)c3C(=O)N/N=C/c3ccc(Cl)cc3)[nH]c2c1`, greater than 100 µM.
On the same count and under the same terms, in the case of `CSc1nc2c(c(=O)[nH]1)N=C(c1ccc([N+](=O)[O-])cc1)CC(c1ccccc1)N2` (configuration not stated) it was greater than 100 µM; in that of `COC1/C=C/C(C)C(C(C)C(OC)C(C)CCC(=O)C(C)C(C/C=C/N(C)C=O)OC)OC(=O)C=CC2OC2(C)CC(OC)C(OC)C2=CC(=O)O[C@@H](C(C)C(OC)CC(OC)/C=C/C(C)C(O)C1)[C@H]2O` (some centres not stated), 0.0297 µM; in that of `CC(=O)Nc1ccc(C(O)/C(=N/N)c2nc3ccc(Cl)cc3[nH]c2=O)cc1` (configuration not stated), greater than 100 µM.
The compound `CC1CC(C)C(C#N)N(C)c2ccccc21` (configuration not stated) returned a TGI greater than 100 µM.
Compound `NC(N)=NCCCC(NC(=O)c1cccc2c(=O)c3ccccc3[nH]c12)C(=O)O` (configuration not stated) displayed a TGI greater than 100 µM.
`O=C(NNCC(O)COc1ccccc1)c1ccccc1` (configuration not stated) showed a TGI greater than 100 µM.
`COC(=O)[C@@H]1CC(C(C[N+](=O)[O-])c2ccc(O[Si](C)(C)C(C)(C)C)cc2)C(=O)N1C(=O)OC(C)(C)C` (some centres not stated): the GI50 was > 100 µM and 34.5 µM; the TGI is greater than 100 µM.
As for `CC(=O)C1C(=O)C(=O)N(c2cccc([N+](=O)[O-])c2)C1=O` (configuration not stated), the TGI is greater than 100 µM.
As for `CCN(CC)CC1CCCCN1CC(=O)N1c2ccccc2C(=O)Nc2cccnc21` (configuration not stated), the TGI is greater than 100 µM.
The same measure, in the same setting: in the case of `O=C(NC1=C(Cl)C(=O)c2ccccc2C1=O)c1ccc(F)cc1` it was 10.7 µM; in that of `CCC(CCCN)Nc1cc(OC)cc2c(C)ccnc12` (configuration not stated), 26.2 µM.

In the next test the test system is MDA-N. Briefly: NCI tumour cell line growth inhibition, 48 h.
`CCOC(=O)C1C(c2ccc3c(c2)OCO3)c2c([nH][nH]c2=O)CC1(C)O` (configuration not stated): the TGI is greater than 100 µM.
Still for that read-out and setting: to `NC(N)=NCC[C@H](NC(=O)OCCCCCn1ccc(=O)[nH]c1=O)C(=O)O` belongs greater than 100 µM.
The same measure, in the same setting: to `O=C(c1ccccc1)c1ccc2nc(-c3c(Cl)c(Cl)c(Cl)c(Cl)c3C(=O)N/N=C/c3ccc(Cl)cc3)[nH]c2c1` belongs greater than 100 µM; to `CSc1nc2c(c(=O)[nH]1)N=C(c1ccc([N+](=O)[O-])cc1)CC(c1ccccc1)N2` (configuration not stated), greater than 100 µM.
For `COC1/C=C/C(C)C(C(C)C(OC)C(C)CCC(=O)C(C)C(C/C=C/N(C)C=O)OC)OC(=O)C=CC2OC2(C)CC(OC)C(OC)C2=CC(=O)O[C@@H](C(C)C(OC)CC(OC)/C=C/C(C)C(O)C1)[C@H]2O` (some centres not stated), the TGI was 0.103 µM.
With `CC(=O)Nc1ccc(C(O)/C(=N/N)c2nc3ccc(Cl)cc3[nH]c2=O)cc1` (configuration not stated), the TGI was greater than 100 µM.
On the same count and under the same terms, to `CC1CC(C)C(C#N)N(C)c2ccccc21` (configuration not stated) belongs greater than 100 µM; to `NC(N)=NCCCC(NC(=O)c1cccc2c(=O)c3ccccc3[nH]c12)C(=O)O` (configuration not stated), greater than 100 µM.
Turning to `O=C(NNCC(O)COc1ccccc1)c1ccccc1` (configuration not stated), the TGI was greater than 100 µM.
For `COC(=O)[C@@H]1CC(C(C[N+](=O)[O-])c2ccc(O[Si](C)(C)C(C)(C)C)cc2)C(=O)N1C(=O)OC(C)(C)C` (some centres not stated), the TGI is greater than 100 µM.
On the same count and under the same terms, to `CC(=O)C1C(=O)C(=O)N(c2cccc([N+](=O)[O-])c2)C1=O` (configuration not stated) belongs greater than 100 µM; to `CCN(CC)CC1CCCCN1CC(=O)N1c2ccccc2C(=O)Nc2cccnc21` (configuration not stated), greater than 100 µM; to `O=C(NC1=C(Cl)C(=O)c2ccccc2C1=O)c1ccc(F)cc1`, 12.9 µM.
`CCC(CCCN)Nc1cc(OC)cc2c(C)ccnc12` (configuration not stated) showed a TGI of 34.1 µM.
